Values quoted from earlier work, collected in US5688524A, “Transdermal formulations for administering prazosin” (Cygnus, Inc., priority 1993, dated 1997).

Columns and labels:
[1] = oral; incomplete absorption, GI degradation, first pass liver metabolism
[2] = system: benign prostatic hypertrophy (BPH); details: in vivo

- bioavailability [1]: incomplete bioavailability
Compound: COc1cc2nc(N3CCN(C(=O)c4ccco4)CC3)nc(N)c2cc1OC [prazosin]
- effect in treating benign prostatic hypertrophy (BPH) [2]: effective in treating benign prostatic hypertrophy (BPH)
